{"source": "paper PMC5855801", "about": "“Benzothiophenone Derivatives Targeting Mutant Forms of Estrogen Receptor-α in Hormone-Resistant Breast Cancers” (International Journal of Molecular Sciences, 2018)", "key": {"[1]": {"test_system": "TamR3 cells (tamoxifen-resistant MCF7-derived)", "assay": "Presto Blue cell viability assay, TamR3", "format": "cell-based, human", "settings": "TamR3, 96 h, two-fold dilution starting at 50 µM", "method": "(§1) The Presto Blue cell viability assay was used to assess the growth inhibitory potential of VPC-16606 on ERα^+ T47D, MCF7, ZR75-1 and TamR3 cells. They were treated for 96 h with a two-fold dilution range of the compound starting at 50 µM.\n(§2) Cell viability was determined using the Presto Blue cell viability assay (Thermo Fisher Scientific, Waltham, MA, USA). Cells were seeded in clear bottom black-walled 96-well plates at a density of 5 × 10^3 cells/well in 100 μL of their respective media. On the following day, the cells were treated with test compounds (0.001–22.5 μM) in the presence of 1 nM E2 and incubated at 37 °C. After 96 h, 30 μL of Presto Blue reagent was added and incubated for 10 min at 37 °C. The fluorescent signal from viable cells was measured at 590 nm."}, "[2]": {"test_system": "ERα-dependent genes pS2, PR, Cyclin D1 and CDC2", "assay": "qRT-PCR of ERα-dependent genes in TamR3 cells", "format": "cell-based, human", "settings": "TamR3, 24 h, 1 nM E2", "method": "(§3) mRNA levels were analyzed after treatment of MCF7 and TamR3 cells for 24 h with the test compounds as described previously. The fold change in expression of the genes was calculated using the 2^−ΔΔCt method with GAPDH as the internal control."}, "PC3 cells": {"test_system": "PC3 cells", "assay": "Presto Blue cell viability assay, PC3", "format": "cell-based, human", "settings": "PC3, 50 µM, 96 h", "method": "as §2\nSupplementary Materials: Benzothiophenone Derivatives Targeting Mutant Forms of Estrogen Receptor-α in Hormone-Resistant Breast Cancers\nFigure S1. Effect of VPC-16606 on viability of PC3 cells as measured in the Presto Blue assay. […]\nFigure S2. TR-FRET Assay showing displacement of Fluorescein labelled PGC1 α peptide by VPC-16606 upon incubation with ER β-LBD. OHT was used at 1µM. Error bars represent standard deviation for two independent experiments performed in triplicates. […]"}, "ERα-LBD and SRC-3": {"biological_target": "T1, ERα-LBD and SRC-3 (Homo sapiens, UniProt P03372)", "T1 construct": "generated by cloning the LBD of ERα into the pACT vector; expressed in transfected cells; host or cells: MDA-MB-231", "T1 sequence (P03372 311-547 limits assumed)": "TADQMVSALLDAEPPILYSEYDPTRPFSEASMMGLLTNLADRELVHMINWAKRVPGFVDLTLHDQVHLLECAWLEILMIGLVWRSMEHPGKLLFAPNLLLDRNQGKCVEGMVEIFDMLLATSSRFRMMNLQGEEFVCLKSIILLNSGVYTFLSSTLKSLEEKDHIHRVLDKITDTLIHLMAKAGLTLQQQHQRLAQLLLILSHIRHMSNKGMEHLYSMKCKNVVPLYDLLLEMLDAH", "assay": "Mammalian two-hybrid assay in MDA-MB-231 cells", "format": "cell-based", "settings": "1 nM E2, 24 h, read-out: IC50 for interaction between ERα-LBD and SRC-3 fusion proteins", "method": "The direct effect of VPC-16606 on ERα-co-activator recruitment was assessed by the mammalian two-hybrid system (Promega, Madison, WI, USA). MDA-MB-231 cells were transfected with pACT-ERα-LBD, pBIND-Steroid receptor coactivator protein-3 (pBIND-SRC-3), a luciferase reporter plasmid containing a GAL4 recognition sequence and a constitutively-active Renilla reporter plasmid. The cells were treated with a […] dilution of VPC-16606 starting at 50 µM.\nFor the mammalian two hybrid assay, the CheckMate^TM Mammalian Two-Hybrid System (Promega, Madison, WI, USA) was used. The pACT-ERα-LBD construct was generated by cloning the LBD of ERα into the pACT vector to produce the ERα-LBD protein fused to the VP16 activation domain. The SRC-3 coactivator peptide (aa 614–698) containing LXXLL (L, leucine; X, any amino acid) motifs 1 and 2 was cloned into the pBIND vector to generate the pBIND-SRC-3 construct expressing the SRC-3 protein fused to the GAL4-DNA binding domain. Full-length human ERα (hERαWT) was encoded on a pcDNA3.1 expression plasmid. Point mutations in the LBD were generated with the QuikChange mutagenesis kit (Stratagene, San Diego, CA, USA) using the hERαWT template. […]\nMDA-MB-231 cells were seeded on 96-well plates (2 × 10^4 cells/well) in 150 µL of medium. […] After 24 h, the cells were lysed and luminescence was measured as for the luciferase transcriptional assay described above."}, "[3]": {"test_system": "ERα-dependent genes pS2, PR, Cyclin D1 and CDC2", "assay": "qRT-PCR of ERα-dependent genes in MCF7 cells", "format": "cell-based, human", "settings": "MCF7, 24 h, 1 nM E2", "method": "as §3"}, "[4]": {"test_system": "mutant ERα (L536Q, Y537S, Y537C, Y537N, D538G, Y537S/D538G, S463P/Y537N)", "assay": "Luciferase reporter assay with mutant ERα in transfected MDA-MB-231 cells", "format": "cell-based, human", "settings": "all seven mutant forms, two-fold dilution starting at 50 µM, read-out: IC50 against constitutively-active mutant forms of ERα (luciferase)", "method": "Figure 5 Predicted MD simulations and experimental effect of VPC-16606 on mutant forms of ERα. […] (C) E2 responsiveness of the synthesized mutants. (D) pcDNA3.1 plasmid encoding either the full-length WT or mutant forms of ERα was transfected into MDA-MB-231 cells along with the 3X-ERE-TATA luciferase reporter plasmid. The cells were treated with a two-fold dilution of VPC-16606 starting at 50 µM. […] Data points are expressed as the percentage of luciferase activity relative to DMSO control. Data were fitted using the log10 of concentration of the inhibitors vs. the response with GraphPad Prism 6. Error bars indicate the standard error of the mean (SEM) for 3 independent experiments performed in triplicates.\nTo test this hypothesis, a site-directed mutagenesis study was initiated on WT-ERα. MDA-MB-231 cells that were transfected with plasmids encoding either WT or mutant ERα (L536Q, Y537S, Y537C, Y537N, D538G, Y537S/D538G, S463P/Y537N) along with an E2-responsive luciferase reporter plasmid and a constitutively-active Renilla reporter plasmid. The cells were treated with VPC-16606 with two-fold dilution starting at 50 µM. […] This is particularly important because they corroborate the idea that such clinically-relevant mutant forms of the receptor, which cause the receptor to be E2 independent, can be inhibited by targeting an alternative functional site on the receptor. […]"}, "ZR75-1 cells": {"test_system": "ZR75-1 cells", "assay": "Presto Blue cell viability assay, ZR75-1", "format": "cell-based, human", "settings": "ZR75-1, 96 h, two-fold dilution starting at 50 µM", "method": "as §1, §2"}}, "data": [{"smiles": "CC(=O)N(/N=C1\\Sc2c(C)cccc2C1=O)c1ccccc1Cl", "note": "[VPC-16606]", "values": [{"measurement": "Cell growth (Presto Blue viability)", "setting": "[1]", "result": "significantly reduce the growth"}, {"measurement": "mRNA levels of ERα-dependent genes pS2, PR, Cyclin D1 and CDC2", "setting": "[2]", "result": "significantly downregulates"}, {"measurement": "Cell viability of PC3 cells", "setting": "PC3 cells", "result": "affects cell viability"}, {"measurement": "IC50", "setting": "ERα-LBD and SRC-3", "result": 800, "unit": "nM"}, {"measurement": "mRNA levels of ERα-dependent genes pS2, PR, Cyclin D1 and CDC2", "setting": "[3]", "result": "significantly downregulates"}, {"measurement": "IC50", "setting": "[4]", "result": "500 to 1000", "unit": "nM"}, {"measurement": "Cell growth (Presto Blue viability)", "setting": "ZR75-1 cells", "result": "significantly reduce the growth"}]}]}
